Assay results from the kinase profiling compilation of Christmann-Franck et al. (2016).

Columns and labels:
Experiment in all cases: KINOMEscan competition binding
Settings in all cases: compound 10.0 µM; call rule not given here
[1] = molecular target: STK17A (human) (UniProt Q9UEE5)
[2] = molecular target: KDR (human) (UniProt P35968)
[3] = molecular target: STK32B (human) (UniProt Q9NY57)
[4] = molecular target: STK17B (human) (UniProt O94768)
[5] = molecular target: ITK (human) (UniProt Q08881)
[6] = molecular target: BRAF (human) (UniProt P15056)
Chain of BRAF (human) (P15056 whole entry, looked up): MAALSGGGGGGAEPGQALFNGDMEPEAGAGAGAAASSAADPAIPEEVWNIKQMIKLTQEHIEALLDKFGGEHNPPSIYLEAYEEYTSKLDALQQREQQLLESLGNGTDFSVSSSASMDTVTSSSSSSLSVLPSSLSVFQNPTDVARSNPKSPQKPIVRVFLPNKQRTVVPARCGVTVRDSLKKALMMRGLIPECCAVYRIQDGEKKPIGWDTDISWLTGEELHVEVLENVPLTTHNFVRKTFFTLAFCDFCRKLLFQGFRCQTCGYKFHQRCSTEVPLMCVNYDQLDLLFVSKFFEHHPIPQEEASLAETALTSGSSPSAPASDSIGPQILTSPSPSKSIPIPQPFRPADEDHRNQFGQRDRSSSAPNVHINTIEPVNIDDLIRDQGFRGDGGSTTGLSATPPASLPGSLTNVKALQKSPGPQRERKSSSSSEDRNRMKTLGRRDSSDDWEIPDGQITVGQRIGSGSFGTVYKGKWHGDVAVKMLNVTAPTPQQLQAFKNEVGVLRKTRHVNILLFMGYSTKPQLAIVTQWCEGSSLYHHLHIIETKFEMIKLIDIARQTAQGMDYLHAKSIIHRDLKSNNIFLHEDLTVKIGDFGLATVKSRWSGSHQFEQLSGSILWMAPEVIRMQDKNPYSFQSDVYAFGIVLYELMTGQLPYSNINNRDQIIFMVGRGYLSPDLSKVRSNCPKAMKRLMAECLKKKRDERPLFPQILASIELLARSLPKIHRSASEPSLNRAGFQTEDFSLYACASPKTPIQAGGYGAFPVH

[7] = molecular target: SRPK1 (human) (UniProt Q96SB4)
[8] = molecular target: JAK1 JH2 pseudokinase (human) (UniProt P23458)
[9] = molecular target: STK16 (human) (UniProt O75716)
[10] = molecular target: NLK (human) (UniProt Q9UBE8)
[11] = molecular target: BRSK2 (human) (UniProt Q8IWQ3)
[12] = molecular target: AURKA (human) (UniProt O14965)
[13] = molecular target: STK3 (human) (UniProt Q13188)
[14] = molecular target: FES (human) (UniProt P07332)
[15] = molecular target: FGFR2 (human) (UniProt P21802)
Chain of FGFR2 (human) (P21802 whole entry, looked up): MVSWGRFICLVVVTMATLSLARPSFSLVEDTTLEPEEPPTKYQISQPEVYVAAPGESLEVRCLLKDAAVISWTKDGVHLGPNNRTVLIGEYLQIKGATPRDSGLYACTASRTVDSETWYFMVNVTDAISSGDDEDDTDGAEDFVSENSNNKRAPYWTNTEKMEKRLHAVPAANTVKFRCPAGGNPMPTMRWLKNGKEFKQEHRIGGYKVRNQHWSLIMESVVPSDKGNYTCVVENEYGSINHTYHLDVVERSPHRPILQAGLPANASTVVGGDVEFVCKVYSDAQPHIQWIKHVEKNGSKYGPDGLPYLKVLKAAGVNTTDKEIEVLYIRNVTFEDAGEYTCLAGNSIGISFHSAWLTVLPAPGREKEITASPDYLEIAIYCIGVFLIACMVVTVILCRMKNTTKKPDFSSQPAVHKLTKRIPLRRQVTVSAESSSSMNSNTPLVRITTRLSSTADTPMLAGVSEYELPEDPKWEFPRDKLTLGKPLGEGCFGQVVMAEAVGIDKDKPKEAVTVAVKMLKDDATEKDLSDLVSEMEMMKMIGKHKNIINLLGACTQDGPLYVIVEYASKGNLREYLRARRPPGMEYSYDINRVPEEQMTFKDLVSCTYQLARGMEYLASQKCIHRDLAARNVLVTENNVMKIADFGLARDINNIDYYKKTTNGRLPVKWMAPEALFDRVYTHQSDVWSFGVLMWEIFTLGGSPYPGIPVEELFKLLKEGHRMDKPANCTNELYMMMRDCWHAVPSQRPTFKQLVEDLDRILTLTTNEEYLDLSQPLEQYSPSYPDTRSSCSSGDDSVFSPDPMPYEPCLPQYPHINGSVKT

[16] = molecular target: HCK (human) (UniProt P08631)
Chain of HCK (human) (P08631 whole entry, looked up): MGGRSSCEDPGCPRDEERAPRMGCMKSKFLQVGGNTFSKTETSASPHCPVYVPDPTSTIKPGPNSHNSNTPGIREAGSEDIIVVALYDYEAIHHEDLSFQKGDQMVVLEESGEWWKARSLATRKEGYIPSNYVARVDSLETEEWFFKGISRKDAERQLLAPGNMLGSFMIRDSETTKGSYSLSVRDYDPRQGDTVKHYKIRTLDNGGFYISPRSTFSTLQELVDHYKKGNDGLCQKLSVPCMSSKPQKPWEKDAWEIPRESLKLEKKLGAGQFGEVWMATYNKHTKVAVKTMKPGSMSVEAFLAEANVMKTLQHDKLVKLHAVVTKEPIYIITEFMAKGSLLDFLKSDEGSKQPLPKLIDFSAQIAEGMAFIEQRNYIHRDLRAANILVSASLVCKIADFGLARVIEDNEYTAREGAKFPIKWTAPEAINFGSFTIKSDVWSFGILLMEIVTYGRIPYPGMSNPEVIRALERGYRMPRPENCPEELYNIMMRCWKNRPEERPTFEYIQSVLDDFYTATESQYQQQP

[17] = molecular target: CAMK2A (human) (UniProt Q9UQM7)
Chain of CAMK2A (human) (Q9UQM7 whole entry, looked up): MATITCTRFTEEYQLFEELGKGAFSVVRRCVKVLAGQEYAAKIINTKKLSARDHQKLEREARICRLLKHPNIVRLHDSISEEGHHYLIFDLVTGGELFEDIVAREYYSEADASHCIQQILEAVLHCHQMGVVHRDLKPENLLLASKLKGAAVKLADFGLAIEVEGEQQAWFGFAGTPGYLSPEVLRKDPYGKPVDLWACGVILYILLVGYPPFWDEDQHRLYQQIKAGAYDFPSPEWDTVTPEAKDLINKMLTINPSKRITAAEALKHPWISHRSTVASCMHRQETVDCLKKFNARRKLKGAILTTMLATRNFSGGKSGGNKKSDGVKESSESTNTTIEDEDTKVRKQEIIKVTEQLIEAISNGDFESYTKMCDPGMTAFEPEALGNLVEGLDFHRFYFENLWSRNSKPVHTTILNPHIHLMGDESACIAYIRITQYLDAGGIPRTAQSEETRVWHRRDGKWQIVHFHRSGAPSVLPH

[18] = molecular target: TEK (human) (UniProt Q02763)
[19] = molecular target: CLK4 (human) (UniProt Q9HAZ1)
[20] = molecular target: MAP3K5 (human) (UniProt Q99683)
[21] = molecular target: CDK16 (human) (UniProt Q00536)
[22] = molecular target: FLT3 (human) (UniProt P36888)
[23] = molecular target: ALK (human) (UniProt Q9UM73)
[24] = molecular target: DAPK2 (human) (UniProt Q9UIK4)
[25] = molecular target: PKMYT1 (human) (UniProt Q99640)
[26] = molecular target: NEK9 (human) (UniProt Q8TD19)
[27] = molecular target: PRKG1 (human) (UniProt Q13976)
Chain of PRKG1 (human) (Q13976 whole entry, looked up): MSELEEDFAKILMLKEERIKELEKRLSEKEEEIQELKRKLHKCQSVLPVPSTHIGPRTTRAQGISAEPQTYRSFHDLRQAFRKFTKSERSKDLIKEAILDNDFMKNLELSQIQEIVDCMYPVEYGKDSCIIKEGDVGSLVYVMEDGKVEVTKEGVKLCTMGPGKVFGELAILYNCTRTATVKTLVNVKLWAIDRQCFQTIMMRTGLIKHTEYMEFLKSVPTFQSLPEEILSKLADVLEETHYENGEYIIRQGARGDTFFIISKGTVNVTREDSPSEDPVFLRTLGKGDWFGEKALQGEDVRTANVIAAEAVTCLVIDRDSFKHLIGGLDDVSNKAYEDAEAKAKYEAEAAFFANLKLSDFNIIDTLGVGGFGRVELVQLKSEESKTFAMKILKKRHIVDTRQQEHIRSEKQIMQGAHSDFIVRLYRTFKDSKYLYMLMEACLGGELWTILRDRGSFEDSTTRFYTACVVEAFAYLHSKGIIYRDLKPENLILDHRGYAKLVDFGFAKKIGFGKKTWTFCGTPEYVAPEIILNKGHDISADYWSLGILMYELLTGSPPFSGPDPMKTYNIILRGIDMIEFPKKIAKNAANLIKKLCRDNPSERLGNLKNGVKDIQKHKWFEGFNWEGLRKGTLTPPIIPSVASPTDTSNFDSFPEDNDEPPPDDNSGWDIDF

[28] = molecular target: CSNK2A1 (human) (UniProt P68400)
[29] = molecular target: MAPK12 (human) (UniProt P53778)
[30] = molecular target: ACVR1 (human) (UniProt Q04771)
[31] = molecular target: EPHA2 (human) (UniProt P29317)
[32] = molecular target: CSNK2A2 (human) (UniProt P19784)
[33] = molecular target: TYRO3 (human) (UniProt Q06418)
[34] = molecular target: MAPK3 (human) (UniProt P27361)
[35] = molecular target: CDC42BPA (human) (UniProt Q5VT25)
[36] = molecular target: TTK (human) (UniProt P33981)
Chain of TTK (human) (P33981 whole entry, looked up): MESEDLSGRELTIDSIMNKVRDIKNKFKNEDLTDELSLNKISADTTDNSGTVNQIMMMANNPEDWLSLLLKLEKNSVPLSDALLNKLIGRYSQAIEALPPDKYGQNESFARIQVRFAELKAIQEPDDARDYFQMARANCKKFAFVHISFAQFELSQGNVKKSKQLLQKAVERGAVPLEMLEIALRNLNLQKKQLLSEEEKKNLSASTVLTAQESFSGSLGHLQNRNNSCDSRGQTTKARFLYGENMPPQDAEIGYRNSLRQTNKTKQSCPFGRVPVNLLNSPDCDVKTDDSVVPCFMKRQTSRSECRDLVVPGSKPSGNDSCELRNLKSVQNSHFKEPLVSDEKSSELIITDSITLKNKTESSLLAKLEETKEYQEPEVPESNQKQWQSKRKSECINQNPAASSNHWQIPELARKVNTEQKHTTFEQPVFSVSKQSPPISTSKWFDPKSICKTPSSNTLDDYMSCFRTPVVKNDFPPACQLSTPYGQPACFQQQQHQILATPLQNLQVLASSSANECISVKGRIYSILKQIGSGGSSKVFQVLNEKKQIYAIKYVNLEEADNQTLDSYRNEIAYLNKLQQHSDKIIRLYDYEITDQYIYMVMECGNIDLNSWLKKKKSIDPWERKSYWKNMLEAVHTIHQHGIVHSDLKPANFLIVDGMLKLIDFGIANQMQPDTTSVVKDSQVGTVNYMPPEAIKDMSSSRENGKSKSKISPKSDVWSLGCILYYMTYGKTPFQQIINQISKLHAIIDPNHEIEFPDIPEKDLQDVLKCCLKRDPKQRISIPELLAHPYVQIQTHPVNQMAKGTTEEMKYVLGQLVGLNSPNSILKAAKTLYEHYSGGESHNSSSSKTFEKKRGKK

[37] = molecular target: KIT (human) (UniProt P10721)
[38] = molecular target: MST4 (human) (UniProt Q9P289)
[39] = molecular target: TNK2 (human) (UniProt Q07912)
[40] = molecular target: ACVR1B (human) (UniProt P36896)
[41] = molecular target: CSNK1A1L (human) (UniProt Q8N752)

Chain of STK17B (human) (O94768 whole entry, looked up): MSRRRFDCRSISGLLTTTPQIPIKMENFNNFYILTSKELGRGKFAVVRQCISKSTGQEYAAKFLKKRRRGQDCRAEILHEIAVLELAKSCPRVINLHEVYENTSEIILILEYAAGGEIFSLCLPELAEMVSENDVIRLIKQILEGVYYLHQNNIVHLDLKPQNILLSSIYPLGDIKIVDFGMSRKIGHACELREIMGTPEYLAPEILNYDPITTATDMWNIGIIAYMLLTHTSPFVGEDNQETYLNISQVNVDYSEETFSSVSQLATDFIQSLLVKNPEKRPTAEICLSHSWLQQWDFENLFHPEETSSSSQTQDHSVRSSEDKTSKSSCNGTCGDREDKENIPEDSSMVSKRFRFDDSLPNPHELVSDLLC
Chain of STK17A (human) (Q9UEE5 whole entry, looked up): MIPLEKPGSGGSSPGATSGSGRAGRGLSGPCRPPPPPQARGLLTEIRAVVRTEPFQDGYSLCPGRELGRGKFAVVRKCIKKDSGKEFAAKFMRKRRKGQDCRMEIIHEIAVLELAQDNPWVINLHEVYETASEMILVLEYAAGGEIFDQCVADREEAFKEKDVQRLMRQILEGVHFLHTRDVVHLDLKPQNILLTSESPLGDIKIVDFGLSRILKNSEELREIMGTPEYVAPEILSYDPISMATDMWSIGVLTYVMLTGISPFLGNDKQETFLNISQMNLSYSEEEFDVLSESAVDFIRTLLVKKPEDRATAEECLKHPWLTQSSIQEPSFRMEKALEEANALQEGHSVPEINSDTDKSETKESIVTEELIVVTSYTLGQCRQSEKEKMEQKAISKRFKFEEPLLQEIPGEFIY

SMILES | kinase still bound, per cent of control [1] | kinase still bound, per cent of control [2] | kinase still bound, per cent of control [3] | kinase still bound, per cent of control [4] | kinase still bound, per cent of control [5] | kinase still bound, per cent of control [6] | kinase still bound, per cent of control [7] | kinase still bound, per cent of control [8] | kinase still bound, per cent of control [9] | kinase still bound, per cent of control [10] | kinase still bound, per cent of control [11] | kinase still bound, per cent of control [12] | kinase still bound, per cent of control [13] | kinase still bound, per cent of control [15] | kinase still bound, per cent of control [16] | kinase still bound, per cent of control [17] | kinase still bound, per cent of control [18] | kinase still bound, per cent of control [19] | kinase still bound, per cent of control [20] | kinase still bound, per cent of control [21] | other results
c1ccc(-c2n[nH]cc2-c2ccnc3ccccc23)nc1 | no effect (inactive) | no effect (inactive) | no effect (inactive) | no effect (inactive) | no effect (inactive) | no effect (inactive) | no effect (inactive) | no effect (inactive) | no effect (inactive) | no effect (inactive) | no effect (inactive) | no effect (inactive) | no effect (inactive) | no effect (inactive) | no effect (inactive) | no effect (inactive) | no effect (inactive) | no effect (inactive) | no effect (inactive) | no effect (inactive) | kinase still bound, per cent of control [14]: no effect (inactive); kinase still bound, per cent of control [22]: no effect (inactive); kinase still bound, per cent of control [23]: no effect (inactive); kinase still bound, per cent of control [24]: no effect (inactive); kinase still bound, per cent of control [25]: no effect (inactive); kinase still bound, per cent of control [26]: no effect (inactive); kinase still bound, per cent of control [27]: no effect (inactive); kinase still bound, per cent of control [28]: no effect (inactive); kinase still bound, per cent of control [29]: no effect (inactive); kinase still bound, per cent of control [30]: no effect (inactive); kinase still bound, per cent of control [31]: no effect (inactive); kinase still bound, per cent of control [32]: no effect (inactive); kinase still bound, per cent of control [33]: no effect (inactive); kinase still bound, per cent of control [34]: no effect (inactive); kinase still bound, per cent of control [35]: no effect (inactive); kinase still bound, per cent of control [36]: no effect (inactive); kinase still bound, per cent of control [37]: no effect (inactive); kinase still bound, per cent of control [38]: no effect (inactive); kinase still bound, per cent of control [39]: no effect (inactive)
CCS(=O)(=O)Nc1ccc2c(c1)[C@H](/C(=N/c1ccc(CN3CCCCC3)cc1)c1ccccc1)C(=O)N2 | 0% | 0% | 15.4% | 0.1% | 0.1% | no effect (inactive) | 0% | 1.8% | 0% | no effect (inactive) | 0% | 0% | 0% | 0.1% | 0% | 0.5% | 0.4% | 0% | 1.4% | 0% | kinase still bound, per cent of control [40]: 2%; kinase still bound, per cent of control [22]: 0%; kinase still bound, per cent of control [23]: 0%; kinase still bound, per cent of control [24]: 3.8%; kinase still bound, per cent of control [25]: no effect (inactive); kinase still bound, per cent of control [26]: no effect (inactive); kinase still bound, per cent of control [27]: 0.15%; kinase still bound, per cent of control [28]: 0%; kinase still bound, per cent of control [29]: no effect (inactive); kinase still bound, per cent of control [30]: 0.1%; kinase still bound, per cent of control [31]: 1.5%; kinase still bound, per cent of control [41]: no effect (inactive); kinase still bound, per cent of control [32]: 0%; kinase still bound, per cent of control [33]: 0.2%; kinase still bound, per cent of control [34]: 10.8%; kinase still bound, per cent of control [35]: no effect (inactive); kinase still bound, per cent of control [36]: 0%; kinase still bound, per cent of control [37]: 0.1%; kinase still bound, per cent of control [38]: 17.2%; kinase still bound, per cent of control [39]: 0%
